The results in this text go back to US20220233512A1, “INHIBITING AN IMMUNE RESPONSE MEDIATED BY ONE OR MORE OF TLR2, RAGE, CCR5, CXCR4 AND CD4” (priority 2020, published 2022).

In this experiment the target is T1, mu opiate receptor (MOR) (Rattus norvegicus, UniProt P33535).
T1 construct: from tissue; host or cells: striatum (membrane preparation)
Put plainly: MOR agonist activity using [35S]GTPgS binding assay in striatal membranes. The format is biochemical. The arrangement: MOR agonist activity (preliminary study): unit of the concentration uncertain. To be noted: for MOR agonist activity (preliminary study): average of two runs. As for the experimental part: To assess the mu opiate receptor (MOR) agonist activity of positive compounds from the FLNA screening, compounds were tested in a [^35S]GTPgS binding assay using striatal membranes. […] This assay measures a functional consequence of receptor occupancy at one of the earliest receptor-mediated events. The assay permits for traditional pharmacological parameters of potency, efficacy and antagonist affinity, with the advantage that agonist measures are not subjected to amplification or other modulation that may occur when analyzing parameters further downstream of the receptor.
Thus, striatal tissue was homogenized in 10 volumes of ice cold 25 mM HEPES buffer, pH 7.4, which contained 1 mM EGTA, 100 mM sucrose, 50 mg/ml leupeptin, 0.04 mM PMSF, 2 mg/ml soybean trypsin inhibitor and 0.2% 2-mercaptoethanol. The homogenates were centrifuged at 800×g for 5 minutes and the supernatants were centrifuged at 49,000×g for 20 minutes. The resulting pellets were suspended in 10 volume of reaction buffer, which contained 25 mM HEPES, pH 7.5, 100 mM NaCl, 50 mg/ml leupeptin, 2 mg/ml soybean trypsin inhibitor, 0.04 mM PMSF and 0.02% […].
The resultant striatal membrane preparation (200 mg) was admixed and maintained (incubated) at 30° C. for 5 minutes in reaction buffer as above that additionally contained 1 mM MgCl2 and 0.5 nM [^35S]GTPgS (0.1 mCi/assay, PerkinElmer Life and Analytical Sciences) in a total volume of 250 ml and continued for 5 minutes in the absence or presence of 0.1-10 mM of an assayed compound of interest. The reaction was terminated by dilution with 750 ml of ice-cold reaction buffer that contained 20 mM MgCl2 and 1 mM EGTA and immediate centrifugation at 16,000×g for 5 minutes.
The resulting pellet was solubilized by sonicating for 10 seconds in 0.5 ml of immunoprecipitation buffer containing 0.5% digitonin, 0.2% sodium cholate and 0.5% NP-40. Normal rabbit serum (1 ml) was added to 1 ml of lysate and incubated at 25° C. for 30 minutes. Nonspecific immune complexes were removed by incubation with 25 ml of protein A/G-conjugated agarose beads at 25° C. for 30 minutes followed by centrifugation at 5,000×g at 4° C. for 5 minutes. The supernatant was divided and separately incubated at 25° C. for 30 minutes with antibodies raised against Gao proteins (1:1,000 dilutions).
The immunocomplexes so formed were collected by incubation at 25° C. for 30 minutes with 40 ml of agarose-conjugated protein A/G beads and centrifugation at 5,000×g at 4° C. for 5 minutes. The pellet was washed and suspended in buffer containing 50 mM Tris-HCl, pH 8.0, and 1% NP-40. The radioactivity in the suspension was determined by liquid scintillation spectrometry. […] DAMGO (1 or 10 mM) was used as a positive control.
(In general: GTPγS resists hydrolysis and so accumulates on activated G proteins.)

Where [1] appears, read: 0.1 μM compound as agonist, Series C-2 table.
The mark [2] stands for this setting: 1 μM compound as agonist, Series C-2 table.
The mark [3] stands for this setting: 0.1 μM compound as agonist, Series C-1 table.
Setting [4] is: 1 μM compound as agonist, Series C-1 table.
The mark [5] stands for this setting: 0.1 (unit uncertain) compound as agonist.
The mark [6] stands for this setting: 1 (unit uncertain) compound as agonist.

T1 sequence (P33535 whole entry): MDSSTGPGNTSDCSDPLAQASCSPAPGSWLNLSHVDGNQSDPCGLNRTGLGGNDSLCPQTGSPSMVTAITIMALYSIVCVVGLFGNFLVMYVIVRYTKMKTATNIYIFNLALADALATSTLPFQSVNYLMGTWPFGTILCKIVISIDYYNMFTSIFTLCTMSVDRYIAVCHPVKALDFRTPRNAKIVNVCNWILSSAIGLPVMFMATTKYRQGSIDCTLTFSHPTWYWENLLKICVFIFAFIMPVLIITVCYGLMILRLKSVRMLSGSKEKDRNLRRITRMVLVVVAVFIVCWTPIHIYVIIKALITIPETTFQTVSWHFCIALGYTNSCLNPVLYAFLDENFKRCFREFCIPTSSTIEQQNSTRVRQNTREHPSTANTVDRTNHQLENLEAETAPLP

On to `COc1ccc(S(=O)(=O)N2CCOC23CCN(C(=O)OC(C)(C)C)CC3)cc1` [Compound C0043], for which the “MOR agonist activity ([35S]GTPgS binding to Gao)” value by setting is: under setting [1], 175.4%; (1 μM + BFNA, Series C-2 table) 83.3%; under setting [2], 242.6%.

As to `O=C1CN(Cc2ccccc2)C2(CCN(CC3CC3)CC2)N1` [Compound C0125M], the “MOR agonist activity ([35S]GTPgS binding to Gao)” value is 168.6% under setting [1]; 159.7% (1 μM + BFNA, Series C-2 table); 195.2% under setting [2].

Turning to `O=C(c1ccc([N+](=O)[O-])cc1)N1CCC2(CC1)OCCN2S(=O)(=O)c1ccc([N+](=O)[O-])cc1` [Compound C0033], the “MOR agonist activity ([35S]GTPgS binding to Gao)” value under setting [3] turned out to be 134.5%; the “MOR agonist activity ([35S]GTPgS binding to Gao)” value (1 μM + BFNA, Series C-1 table) was 76.6%; the “MOR agonist activity ([35S]GTPgS binding to Gao)” value under setting [4] is on record as 186.4%.

Regarding `O=S(=O)(c1ccc(F)c(F)c1)N1CCC2(CC1)OCCN2S(=O)(=O)c1ccc(F)c(F)c1` [Compound C0072], the “MOR agonist activity ([35S]GTPgS binding to Gao)” value reads like this: under setting [3], 172.7%; (1 μM + BFNA, Series C-1 table) 67.1%; under setting [4], 259.1%.

For `O=C1CN(Cc2ccccc2)C2(CCN(S(=O)(=O)c3cc(Cl)c(O)c(Cl)c3)CC2)N1` [Compound C0139M], the “MOR agonist activity ([35S]GTPgS binding to Gao)” value runs as follows: under setting [3], 156.1%; (1 μM + BFNA, Series C-1 table) 51.0%; under setting [4], 206.6%.

Regarding `CC(=O)c1ccc(S(=O)(=O)N2CCC3(CC2)NC(=O)CN3S(=O)(=O)c2ccc(C(C)=O)cc2)cc1` [Compound C0064], the “MOR agonist activity ([35S]GTPgS binding to Gao)” value is, setting by setting: under setting [3], 213.8%; (1 μM + BFNA, Series C-1 table) 38.1%; under setting [4], 349.6%.

Take `CC(=O)c1ccc(C(=O)N2CCOC23CCN(S(=O)(=O)c2ccc(C(C)=O)cc2)CC3)cc1` [Compound C0053]: the “MOR agonist activity ([35S]GTPgS binding to Gao)” value came to 104.0% under setting [3]; 93.1% (1 μM + BFNA, Series C-1 table); 157.2% under setting [4].

For `CS(=O)(=O)c1ccc(S(=O)(=O)N2CCOC23CCN(CC2CC2)CC3)cc1` [Compound C0126M], the “MOR agonist activity ([35S]GTPgS binding to Gao)” value was found to be 181.8% under setting [1]; 108.5% (1 μM + BFNA, Series C-2 table); 265.3% under setting [2].

Turning to `CC(=O)c1ccc(S(=O)(=O)N2CCC3(CC2)NCCS3)cc1` [Compound C0060], the “MOR agonist activity ([35S]GTPgS binding to Gao)” value was found to be 166.5% under setting [1]; 143.9% (1 μM + BFNA, Series C-2 table); 218.9% under setting [2].

With `C=CCN1CCC2(CC1)OCCN2S(=O)(=O)c1ccc(C)cc1` [Compound 10], the “MOR agonist activity (preliminary study)” value is listed as 60.4% (1 mM + bNFA), 163.1% under setting [5] and 191.8% under setting [6].

For `CC(=O)c1ccc(S(=O)(=O)N2CC(CN(C)C)OC23CCN(C)CC3)cc1` (stereo not drawn) [Compound C0108M], the “MOR agonist activity ([35S]GTPgS binding to Gao)” value is on record as 205.6% under setting [1]; 76.9% (1 μM + BFNA, Series C-2 table); 258.5% under setting [2].

In the case of `O=S(=O)(c1ccc(Cl)cc1)N1CCC2(CC1)OCCN2S(=O)(=O)c1ccc(Cl)cc1` [Compound C0067], the “MOR agonist activity ([35S]GTPgS binding to Gao)” value was determined as 142.7% under setting [3]; 33.5% (1 μM + BFNA, Series C-1 table); 179.0% under setting [4].

Consider `O=[N+]([O-])c1ccc(S(=O)(=O)N2CCC3(CC2)NCCCO3)cc1` [Compound C0045], for which the “MOR agonist activity ([35S]GTPgS binding to Gao)” value is, setting by setting: under setting [1], 149.2%; (1 μM + BFNA, Series C-2 table) 105.3%; under setting [2], 238.8%.

For `O=S(=O)(c1ccc(-c2ccccc2)cc1)N1CCC2(CC1)OCCN2S(=O)(=O)c1ccc(-c2ccccc2)cc1` [Compound C0010], the “MOR agonist activity ([35S]GTPgS binding to Gao)” value is, setting by setting: under setting [3], 136.5%; (1 μM + BFNA, Series C-1 table) 89.1%; under setting [4], 307.0%.

Take `O=S(=O)(c1ccc(C(F)(F)F)cc1)N1CCC2(CC1)OCCN2S(=O)(=O)c1ccc(C(F)(F)F)cc1` [Compound C0012]: the “MOR agonist activity ([35S]GTPgS binding to Gao)” value was found to be 96.8% under setting [3]; 184.4% (1 μM + BFNA, Series C-1 table); 224.8% under setting [4].

In the case of `N#Cc1ccc(S(=O)(=O)N2CCC3(CC2)OCCN3S(=O)(=O)c2ccc(C#N)cc2)cc1` [Compound C0008], the “MOR agonist activity ([35S]GTPgS binding to Gao)” value under setting [3] is on record as 71.2%; the “MOR agonist activity ([35S]GTPgS binding to Gao)” value (1 μM + BFNA, Series C-1 table) worked out at 2.8%; the “MOR agonist activity ([35S]GTPgS binding to Gao)” value under setting [4] was 201.6%.

Turning to `Cc1ccc(S(=O)(=O)N2CCOC23CCN(CC2CCC2)CC3)cc1` [Compound 9], the “MOR agonist activity (preliminary study)” value reads like this: (1 mM + bNFA) 56.6%; under setting [5], 156.6%; under setting [6], 197.2%.

Take `CC(=O)c1ccc(S(=O)(=O)N2CCC3(CC2)OCC(CCCCN(C)C)N3S(=O)(=O)c2ccc(C(C)=O)cc2)cc1` (stereo not drawn) [Compound C0080]: the “MOR agonist activity ([35S]GTPgS binding to Gao)” value runs as follows: under setting [3], 187.9%; (1 μM + BFNA, Series C-1 table) 167.1%; under setting [4], 205.4%.

For `CNc1ccc(S(=O)(=O)N2CCC3(CC2)OCCN3S(=O)(=O)c2ccc(NC)cc2)cc1` [Compound C0024], the “MOR agonist activity ([35S]GTPgS binding to Gao)” value reads like this: under setting [3], 178.4%; (1 μM + BFNA, Series C-1 table) 59.3%; under setting [4], 229.6%.

In the case of `N#Cc1ccccc1S(=O)(=O)N1CCC2(CC1)OCCN2S(=O)(=O)c1ccccc1C#N` [Compound C0004], the “MOR agonist activity ([35S]GTPgS binding to Gao)” value by setting is: under setting [3], 122.0%; (1 μM + BFNA, Series C-1 table) 65.8%; under setting [4], 228.4%.

Take `O=S(=O)(c1cccc2cccnc12)N1CCC2(CC1)OCCN2S(=O)(=O)c1cccc2cccnc12` [Compound C0143M]: the “MOR agonist activity ([35S]GTPgS binding to Gao)” value reads like this: under setting [3], 81.0%; under setting [1], 81.0%; (1 μM + BFNA, Series C-1 table) 86.5%; (1 μM + BFNA, Series C-2 table) 86.5%; under setting [4], 193.3%; under setting [2], 193.3%.

Take `CC(=O)c1ccc(C(=O)N2CCC3(CC2)OCCN3S(=O)(=O)c2ccc(C(C)=O)cc2)cc1` [Compound C0052]: the “MOR agonist activity ([35S]GTPgS binding to Gao)” value under setting [3] was found to be 108.4%; the “MOR agonist activity ([35S]GTPgS binding to Gao)” value (1 μM + BFNA, Series C-1 table) worked out at 42.7%; the “MOR agonist activity ([35S]GTPgS binding to Gao)” value under setting [4] was 162.8%.

With `O=C(O)c1ccc(C(=O)N2CCC3(CC2)OCCN3S(=O)(=O)c2ccc(C(=O)O)cc2)cc1` [Compound C0021], the “MOR agonist activity ([35S]GTPgS binding to Gao)” value reads like this: under setting [3], 159.7%; (1 μM + BFNA, Series C-1 table) 90.7%; under setting [4], 192.0%.

On to `NS(=O)(=O)c1ccc(S(=O)(=O)N2CCC3(CC2)OCCN3S(=O)(=O)c2ccc(S(N)(=O)=O)cc2)cc1` [Compound C0034], for which the “MOR agonist activity ([35S]GTPgS binding to Gao)” value under setting [3] is listed as 103.6%; the “MOR agonist activity ([35S]GTPgS binding to Gao)” value (1 μM + BFNA, Series C-1 table) is recorded as 80.1%; the “MOR agonist activity ([35S]GTPgS binding to Gao)” value under setting [4] is 167.9%.

With `O=S(=O)(c1ccccc1)N1CCC2(CC1)OCCN2S(=O)(=O)c1ccccc1` [Compound C0016], the “MOR agonist activity ([35S]GTPgS binding to Gao)” value runs as follows: under setting [3], 172.7%; (1 μM + BFNA, Series C-1 table) 96.7%; under setting [4], 230.5%.

`O=S(=O)(c1ccc(OC(F)(F)F)cc1)N1CCC2(CC1)OCCN2S(=O)(=O)c1ccc(OC(F)(F)F)cc1` [Compound C0006]: the “MOR agonist activity ([35S]GTPgS binding to Gao)” value is 121.5% under setting [3]; 4.6% (1 μM + BFNA, Series C-1 table); 204.0% under setting [4].
